Assay results: patent US5707815A, “Mammalian monocyte chemoattractant protein receptors and assays using them” (Regents of the University of California, priority 1995, dated 1998)
Like-named read-outs stand apart in the source and are kept apart here.

B1: macrophage inhibitory protein-1 [MIP-1β] (protein, UniProt P13236 24-92, looked up)
C-C motif chemokine 4: APMGSDPPTACCFSYTARKLPRNFVVDYYETSSLCSQPAVVFQTKRSKQVCADPSESWVQEYVYDLELN
notes: C--C chemokine, obtained from R&D

Experiments:
MCP-1RB receptor [1] = assay type: cell-based, human; conditions: for IC50: Table I, read-out: Inhibition of Adenylyl Cyclase IC50 (nM) MCP-1RB; for activation of the MCP-1 receptor in the adenylyl cyclase assay: high concentrations
Procedure: (§1) To investigate inhibition of adenylyl cyclase activity, HEK-293 cells stably-transfected with the MCP-1RB receptor and the MIP-1α/RANTES receptor were grown until confluent in 24-well tissue culture dishes and labeled overnight with 2 μCi/ml of [^3 H]adenine (25-30 Ci/mmol) (New England Nuclear, Boston, Mass.) in MEM-EBSS supplemented with 10% FCS. The next day, the cells were washed by incubation at room temperature with 0.5 ml of serum-free MEM-EBSS media supplemented with 10 mM HEPES, 1 mg/ml BSA, and 1 mM IBMX (3-isobutyl-1-methylxanthine) for 5 min. […] The incubation was terminated by replacement of the media with 1 ml of ice-cold 5% TCA (trichloroacetic acid), 1 mM cAMP, and 1 mM ATP (Sigma). Following incubation at 4° C. for 30 min, the labeled [^3 H]ATP and [3H]cAMP pools were separated and quantitated by chromatography on Dowex 50W (200-400 mesh, hydrogen form, from Sigma) and neutral alumina columns (also from Sigma), as described in Hung, J. Biol. Chem. 267:20831-34 (1992) and Wong, Nature 351: 63-65 (1991). The 1 ml acid supernatant was loaded onto a 1-ml Dowex 50W column and the ATP pool eluted with 3 ml of H2 O. The Dowex 50W columns were then placed over 1-ml alumina columns, and 10 ml of H2 O was added to the Dowex resin and the eluant allowed to drop directly onto the neutral alumina. The cAMP pool was then eluted directly from the alumina with 5 ml of 0.1M imidazole/0.01mM sodium azide. The [^3 H]ATP and [^3 H]cAMP fractions were counted by liquid scintillation spectroscopy. The cAMP pool for each sample was normalized to its own ATP pool and expressed as a ratio by the equation (cAMP cpms/ATP cpms)×100. In each experiment full dose-response curves were generated and expressed as a percent of the forskolin control.
(§2) Inhibition of MCP-1RB receptor activation by bordetella pertussis toxin was investigated. Pertussis toxin (List Biological Labs, Inc., Campbell, Calif.) was dissolved in 0.01M sodium phosphate, pH 7.0, 0.05M sodium chloride and diluted into normal serum containing media at final concentrations of 0.1 ng/ml to 100 ng/ml, and incubated with cells overnight (14-16 h) at 37° C. The conditions of the Pertussis toxin treatment of the 293 cells were identical for calcium fluorimetric and adenylyl cyclase experiments. In the adenylyl cyclase experiments, the Pertussis toxin was added at the same time as [^3 H]adenine.
(§3) Dose response curves generated in the calcium fluorimetric and adenylyl cyclase inhibition assays were fit by a nonlinear least squares program to the logistic equation:
(§4) Effect=max effect/[1+(EC50 /(agonist)^n)]
(§5) where n and EC50 represent the Hill coefficient and the agonist concentration that elicited a half-maximal response, respectively, and were derived from the fitted curve. Curve fitting was done with the computer program "Prism" (by Graph Pad, San Diego, Calif.). Results represent the mean ±SE. The 95% confidence intervals (CI) of the EC50 and IC50 values, when given, were calculated from the log EC50 and IC50 values, respectively.

MIP-1α/RANTES receptor = test: Inhibition of adenylyl cyclase (cAMP accumulation) in HEK-293 cells stably transfected with MIP-1α/RANTES receptor; assay type: cell-based; conditions: for activation of the MIP-1α/RANTES receptor: at up to 1 μM
Procedure: as §1
In similar experiments the MIP-1α/RANTES receptor was stably transfected into 293 cells and also found to mediate potent and dose-dependent inhibition of adenylyl cyclase activity. Unlike the MCP-1RB receptor, however, the MIP-1α/RANTES receptor was activated by multiple chemokines with varying degrees of potency.
as §3, §4, §5

MCP-1RB receptor [2] = test: Intracellular calcium mobilization (indo-1) in stably transfected MCP-1RB/293 cells; assay type: cell-based, human; conditions: for block of stimulation of the cells by MCP-1 / stimulation of calcium signals: MCP-1RB/293 cells; for stimulation of calcium signals: high concentrations
Procedure: Calcium mobilization in 293 cells was then investigated. Transfected HEK-293 cells were grown until confluent, trypsinized briefly, washed with phosphate buffered saline containing 1 mg/ml BSA (PBS-BSA), and resuspended in serum-free MEM-EBSS supplemented with 1 mg/ml BSA and 10 mM HEPES (pH 7.0) at a density of 2×10^7 cells/ml. The cells were incubated in the dark at 37° C. for 20 min in the presence of 5-10 μg/ml indo-1 AM (Molecular Probes, Inc., Eugene, Oreg.). Nine volumes of PGS-BSA were added, and the cells were incubated for an additional 10 min at 37° C., pelleted by centrifugation, and washed twice with 50 ml of the PBS-BSA solution. Washed, indo-1-loaded cells were then resuspended in Hank's Balanced Salt Solution (1.3 mM Ca^2+) supplemented with 1 mg/ml BSA (HBS-BSA) at a density of approximately 0.5×10^6 cells/ml at room temperature. To measure intracellular calcium ([Ca^2+ ]i), 0.5 ml of the cell suspension was placed in a quartz cuvette in a Hitachi F-2000 fluorescence spectrophotometer. […] Intracellular calcium was measured by excitation at 350 nm and fluorescence emission detection at 490 nm (F1) and 410 nm (F2) wavelengths. The [Ca^2+ ]i was estimated by comparing the 490/410 fluorescence ratio after agonist application (R) to that of calibration ratios measured at the end of each run, according to the equation:
[Ca^2+ ]i =Kd ×[(R--Rmin)/(Rmax
where Rmax and Rmin represent the fluorescence ratio under saturating (1.3 mM Ca^2+) and nominally free (10 mM EGTA, Sigma Chemical Co.) calcium conditions, Kd is the dissociation constant of calcium for indo-1, R is the fluorescence ratio, and Sf2/Sb2 is the fluorescence ratio of free and bound indo-1 dye at 410 nm. See Thomas, AP and Delaville, F (1991) in Cellular Calcium, a Practical Approach, Oxford Univ. Press, pp. 1-54.
To quantirate calcium responses, MCP-1 dose response curves were generated in each experiment and the results were expressed as a percent of the maximum calcium signal (at 300 nM MCP-1) measured in that experiment. The changes in [Ca^2+ ]i levels in response to each concentration of agonist were determined by subtracting the baseline from peak [Ca^2+ ]i levels, which were determined by averaging 5 seconds of data prior to agonist addition and surrounding the peak response, respectively. In experiments done to determine the role of extracellular calcium, 3 mM EGTA was added 60-90 seconds prior to MCP-1. […] All experiments were performed at room temperature.
as §2, §3, §4, §5

MCP-1RA = test: Ca45 efflux assay in Xenopus oocytes injected with MCP-1RA cRNA; assay type: cell-based, human; conditions: ligand at 500 nM
Procedure: (§6) The calcium efflux assay was performed to confirm expression of functional MCP-1R protein and to determine whether the MCP-1 receptors A and B conferred responsiveness to MCP-1 or other chemokines. In this assay, MCP-1RA and 1RB cRNA was microinjected into Xenopus oocytes and receptor signaling activities measured by detection of agohist-induced calcium mobilization.
(§7) As described in Vu, Cell 64:1057-68(1991), cRNA was prepared by SP6 RNA polymerase transcription from a NotI linearized vector and run on an agarose gel to confirm a single band of the expected size. One day after harvesting, oocytes were injected with 20 ng of cRNA in a total volume of 50 nl per oocyte. After incubation in modified Barth's buffer for 2 days at 16° C., the oocytes were loaded with Ca^45 (50 uCi/ml, Amersham, Arlington Heights, Va.) for 3 hours, washed for one hour, and placed into wells of a 24-well dish in groups of seven, in a volume of 0.5 ml Ca^45 efflux was determined by collecting the media at 10 minute intervals and counting beta emissions in a liquid scintillation counter. […] Uninjected oocytes were used as controls.

MCP-1RB receptor [3] = test: Equilibrium binding of 125I-MCP-1 to MCP-1RB expressing HEK-293 cells; design: species or system human; conditions: unlabeled chemokine, 500 pM 125I-labeled MCP-1
Procedure: Equilibrium binding assays were then performed using the method of Ernst, J. Immunol. 152:3541-49 (1994). […] Competition experiments were performed using 500 pM ^125 I-labeled MCP-1 and the concentrations of unlabeled chemokines as indicated in FIG. 7A-B.
Equilibrium binding data were analyzed according to the method of Scatchard using the program "LIGAND" (Biosoft, Ferguson, Mo.) on a Macintosh computer. See Munson, Anal. Biochem. 107: 220-39 (1980).

MM6 cells = test: MCP-1 induced calcium flux in MM6 cells (calcium efflux assay); assay type: cell-based, human; conditions: label = chemokine given first, MCP-1 versus RANTES (or MIP-1α)
Procedure: Because monocytes are difficult to isolate in usable quantity and express less than 2000 high affinity MCP-1 binding sites per cell, a cultured cell line that responded well to MCP-1 had to be identified. Using the calcium effiux assay as described in Vu, Cell 64:1057-68(1991), MCP-1 induced calcium fluxes in various cell lines were measured. […] In contrast, a dose-dependent calcium flux was detected in MM6 cells, with half maximal stimulation at 4nM MCP-1.

MCP-1RB = test: Ca45 efflux assay in Xenopus oocytes injected with MCP-1RB cRNA; assay type: cell-based, human; conditions: ligand at 500 nM
Procedure: as §6, §7

[4] = MIP-1α/RANTES receptor, read-out: IC50 for inhibition of adenylyl cyclase
[5] = pretreatment overnight, 0.1 to 100 ng/ml

Row | Molecule | IC50 (MCP-1RB receptor [1]) [nM] | activation of the MCP-1 receptor in the adenylyl cyclase assay (MCP-1RB receptor [1]) | block of stimulation of the cells by MCP-1 (MCP-1RB receptor [2]) | stimulation of calcium signals (MCP-1RB receptor [2]) | calcium efflux response elicited (MCP-1RA) | competition for 125I-MCP-1 binding (MCP-1RB receptor [3]) | calcium efflux response elicited (MCP-1RB) | further results
1 | C=C[C@@]1(C)CC(=O)[C@]2(O)[C@@]3(C)[C@@H](O)CCC(C)(C)[C@@H]3[C@H](O)[C@H](OC(C)=O)[C@@]2(C)O1 [Forskolin, forskolin, reference compound] | – | – | – | – | – | – | – | increase of cAMP levels (MCP-1RB receptor [1]; hek-293 cells, 20 min, 10 µM): 16 fold
2 | Gro-α: C-X-C chemokine | > 1000 | Virtually no activation | failed to block | failed to stimulate significant calcium signals | – | – | – | IC50 (MIP-1α/RANTES receptor; Table I, read-out: Inhibition of Adenylyl Cyclase IC50 (nM) MIP-1α/RANTES R): > 1000 nM; activation of the MIP-1α/RANTES receptor (MIP-1α/RANTES receptor): did not activate
3 | RANTES: C--C chemokine, obtained from R&D | > 1000 | Virtually no activation | failed to block | failed to stimulate significant calcium signals | no response | did not compete for binding | No response | effect of prior exposure to the chemokine on the calcium response to the other chemokine (MM6 cells): could not be ablated; IC50 (MIP-1α/RANTES receptor; [4]): ~0.1 nM
4 | interleukin-8 [IL-8] | – | Virtually no activation | failed to block | failed to stimulate significant calcium signals | No response | – | No response | calcium efflux response elicited (MCP-1RA; listed as Il-8): no response; activation of the MIP-1α/RANTES receptor (MIP-1α/RANTES receptor): did not activate
5 | macrophage inhibitory protein-1 [MIP-1α] | > 1000 | Virtually no activation | failed to block | failed to stimulate significant calcium signals | no response | did not compete for binding | No response | IC50 (MIP-1α/RANTES receptor; [4]): ~0.1 nM
6 | pertussis toxin [reference compound] | – | – | – | – | – | – | – | component resistant to inhibition (MCP-1RB receptor [1]; adenylyl cyclase inhibition, up to 100 ng/ml of PT): ≈ 20%; shift of the MCP-1 IC50 for cAMP accumulation (MCP-1RB receptor [1]; pertussis toxin treatment): without significantly shifting; block of MCP-1 inhibition of adenylyl cyclase (MCP-1RB receptor [1]; [5]): substantially blocked; component resistant to inhibition (MCP-1RB receptor [2]; calcium mobilization, up to 100 ng/ml of PT): ≈ 20%; block of MCP-1-induced mobilization of intracellular calcium (MCP-1RB receptor [2]; [5]): substantially blocked
7 | B1 | > 1000 | Virtually no activation | failed to block | failed to stimulate significant calcium signals | no response | did not compete for binding | No response | –
